{
  "source": "patent US10828298B2",
  "about": "“Pharmaceutical composition containing 2-{4-[N-(5,6-diphenylpyrazin-2-yl)-N-isopropylamino]butyloxy]-N-(methylsulfonyl)acetamide” (NIPPON SHINYAKU CO., LTD., priority 2015, dated 2020)",
  "key": {"[1]": {"assay": "Stability of Compound (I) itself to temperature and humidity (formulation study)", "type": "physicochemical"}, "[2]": {"target": "prostaglandin I2 (PGI2) receptor (Homo sapiens, UniProt P43119)", "sequence (P43119 whole entry)": "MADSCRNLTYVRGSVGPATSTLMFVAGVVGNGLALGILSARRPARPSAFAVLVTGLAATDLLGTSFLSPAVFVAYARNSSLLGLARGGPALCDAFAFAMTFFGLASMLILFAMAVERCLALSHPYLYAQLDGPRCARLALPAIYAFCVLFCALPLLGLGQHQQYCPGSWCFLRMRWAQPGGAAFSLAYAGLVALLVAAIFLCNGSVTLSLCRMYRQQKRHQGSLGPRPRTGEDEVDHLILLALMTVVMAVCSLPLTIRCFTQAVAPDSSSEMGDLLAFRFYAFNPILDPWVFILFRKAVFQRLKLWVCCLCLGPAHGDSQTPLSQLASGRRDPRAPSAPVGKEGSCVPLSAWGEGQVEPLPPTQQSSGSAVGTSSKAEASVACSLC", "conditions": "known, PTL 1; cited from earlier work"}},
  "data": [
    {"smiles": "CC(C)N(CCCCOCC(=O)NS(C)(=O)=O)c1cnc(-c2ccccc2)c(-c2ccccc2)n1", "note": "[Compound (I), 2-{4-[N-(5,6-diphenylpyrazin-2-yl)-N-isopropylamino]butyloxy}-N-(methylsulfonyl)acetamide]", "values": [
      {"measurement": "Stability of Compound (I) itself, in words", "setting": "[1]", "value": "stable to temperature and humidity"},
      {"measurement": "PGI2 receptor agonistic activity, in words", "setting": "[2]", "value": "excellent"}
    ]}
  ]
}
